Assay results taken from patent publication US20130131018A1, “SUBSTITUTED ISOQUINOLINES AND THEIR USE AS TUBULIN POLYMERIZATION INHIBITORS” (Exonhit S.A., priority 2010, published 2013).
Where a name gives a salt, the structure may show the parent alone.

Tested on: K562 cell line
Experiment: MTT assay: cytotoxicity against the K562 cell line
Assay type: cell-based
Settings: Homo sapiens, K562 cells, 72 h, growth inhibition
Protocol: Assessment of Cell Viability via MTT Assay: Cytotoxicity of compounds against the K562 cell line was assessed using the [3-(4,5-dimethylthiazol-2-yl)-2,5-diphenyl tetrazolium bromide] (MTT) assay. Fifteen thousand tumor cells were seeded into wells of flat-bottomed 96-well plates. An amount of 2 μL of a dilution series of each compound dissolved in DMSO was added to 198 μL of appropriate growth medium at three replicates per concentration and the plates were incubated in a 5% CO2 incubator at 37° C. After 72 h, the number of metabolically active cells was determined by MTT assay. Absorbance of each well was measured at 550 nm on a Tecan Sunrise reader. Dose-response curves for growth inhibition were generated as a percentage of untreated control. IC50 was determined by nonlinear regression (Prism, Graph Pad Software, Inc.).

| SMILES | IC50 [nM] |
| --- | --- |
| CCOc1ccc2c(Cc3cc(I)c(OC)c(OC)c3)cncc2c1O [Compound 72, 7-Ethoxy-4-(3-iodo-4,5-dimethoxybenzyl)isoquinolin-8-ol hydrochloride] | 18.3 |
| CCOc1ccc2c(C(=NO)c3cc(OC)c(OC)c(OC)c3)cncc2c1 [Compound 41, (7-ethoxyisoquinolin-4-yl)(3,4,5-trimethoxyphenyl)methanone oxime hydrochloride] | 123 |
| O=C(Nc1ccncc1)C(=O)c1cn(Cc2ccc(Cl)cc2)c2ccccc12 [Indibulin, reference compound] | 197 |
| CCOc1ccc2c(Cc3cc(OC)c(OCC(C)(C)C)c(OC)c3)cncc2c1O [Compound 39, 4-(3,5-Dimethoxy-4-(neopentyloxy)benzyl)-7-ethoxyisoquinolin-8-ol hydrochloride] | 400 |
| CCOc1ccc2c(C(=S)c3cc(OC)c(OC)c(OC)c3)cncc2c1 [Compound 42, (7-Ethoxyisoquinolin-4-yl)(3,4,5-trimethoxyphenyl)methanethione hydrochloride] | 60.7 |
| CCOc1ccc2c(Cc3cc(OC)c(OC)c(OC)c3)cncc2c1 [Compound 16, 4-(3,4,5-Trimethoxybenzyl)-7-ethoxyisoquinoline hydrochloride] | 435 |
| CCOc1ccc2c(C(=O)c3cc(OC)c(OC)c(OC)c3)cncc2c1NS(=O)(=O)NC(=O)OC(C)(C)C [Compound 104, tert-Butyl N-(7-ethoxy-4-(3,4,5-trimethoxybenzoyl)isoquinolin-8-yl)sulfamoylcarbamate] | 38.8 |
| CCOc1ccc2c(C(=O)c3cc(OC)c(OC)c(OC)c3)cncc2c1N=[N+]=[N-] [Compound 108, 8-Azido-7-ethoxy-4-(3,4,5-trimethoxybenzoyl)isoquinoline] | 74.8 |
| CCOc1ccc2c(C(=O)c3cc(Br)c(OC)c(OC)c3)cncc2c1OC(C)=O [Compound 115, 4-(3-Bromo-4,5-dimethoxybenzoyl)-7-ethoxyisoquinolin-8-yl acetate] | 20.8 |
| CCOc1c(OC)cc(Cc2cncc3c(OC)c(OC)ccc23)cc1OC [Compound 9, 4-(4-Ethoxy-3,5-dimethoxybenzyl)-7,8-dimethoxyisoquinoline hydrochloride] | 376 |
| CCOc1ccc2c(Cc3cc(OC)c(OCC)c(OC)c3)cncc2c1OC [Compound 46, 7-Ethoxy-4-(4-ethoxy-3,5-dimethoxybenzyl)-8-methoxyisoquinoline hydrochloride] | 688 |
| CCOc1ccc2c(Cc3cc(OC)c(OCC4CCC4)c(OC)c3)cncc2c1O [Compound 34, 4-(4-(Cyclobutylmethoxy)-3,5-dimethoxybenzyl)-7-ethoxyisoquinolin-8-ol hydrochloride] | 65 |
| CCOc1ccc2c(Cc3cc(Cl)c(OC)c(Cl)c3)cncc2c1O [Compound 69, 4-(3,5-Dichloro-4-methoxybenzyl)-7-ethoxyisoquinolin-8-ol hydrochloride] | 238 |
| CCCOc1c(OC)cc(Cc2cncc3c(OC(=S)N(C)C)c(OCC)ccc23)cc1OC [Compound 68, O-(4-(3,5-Dimethoxy-4-propoxybenzyl)-7-ethoxyisoquinolin-8-yl) dimethylcarbamothioate hydrochloride] | 152 |
| CCOc1ccc2c(Cc3cc(OC)c(OC)c(OC)c3)cncc2c1N=[N+]=[N-] [Compound 107, 8-Azido-7-ethoxy-4-(3,4,5-trimethoxybenzyl)isoquinoline] | 575 |
| CCOc1ccc2c(Cc3cc(OC)c(N4CCCC4)c(OC)c3)cncc2c1O [Compound 76, 4-(3,5-Dimethoxy-4-(pyrrolidin-1-yl)benzyl)-7-ethoxyisoquinolin-8-ol hydrochloride] | 312 |

| SMILES | IC50 [nM] |
| --- | --- |
| CCOc1ccc2c(Cc3cc(OC)c(OCCOC)c(OC)c3)cncc2c1O [Compound 22, 4-(4-(2-Methoxyethoxy)-3,5-dimethoxybenzyl)-7-ethoxyisoquinolin-8-ol hydrochloride] | 142 |
| CCOc1ccc2c(C(=O)c3cc(OC)c(OC)c(OC)c3)cncc2c1NC(=O)[C@@H](N)Cc1ccccc1 [Compound 114, (S)-2-Amino-N-(7-ethoxy-4-(3,4,5-trimethoxybenzoyl)isoquinolin-8-yl)-3-phenylpropanamide dihydrochloride] | 92.6 |
| C=C(c1cc(OC)c(OC)c(OC)c1)c1cncc2c(O)c(OCC)ccc12 [Compound 95, 7-Ethoxy-4-(1-(3,4,5-trimethoxyphenyl)vinyl)isoquinolin-8-ol hydrochloride] | 49.7 |
| CCOc1ccc2c(Cc3cc(OC)c(OC)c(OC)c3)cncc2c1NCC(=O)OC [Compound 93, Methyl 2-(7-ethoxy-4-(3,4,5-trimethoxybenzyl)isoquinolin-8-ylamino)acetate dihydrochloride] | 334 |
| CCOc1ccc2c(Cc3cc(OC)c(CC)c(OC)c3)cncc2c1O [Compound 73, 7-Ethoxy-4-(4-ethyl-3,5-dimethoxybenzyl)isoquinolin-8-ol hydrochloride] | 335 |
| CCOc1ccc2c(Cc3cc(OC)c(OCC#N)c(OC)c3)cncc2c1O [Compound 50, 2-(4-((7-Ethoxy-8-hydroxyisoquinolin-4-yl)methyl)-2,6-dimethoxyphenoxy)acetonitrile hydrochloride] | 69.8 |
| CCOc1ccc2c(Cc3cc(OC)c(NCc4ccccc4)c(OC)c3)cncc2c1O [Compound 51, 4-(4-(Benzylamino)-3,5-dimethoxybenzyl)-7-ethoxyisoquinolin-8-ol hydrochloride] | 741 |
| CCOc1ccc2c(Cc3cc(Br)c(OCC)c(OC)c3)cncc2c1O [Compound 77, 4-(3-Bromo-4-ethoxy-5-methoxybenzyl)-7-ethoxyisoquinolin-8-ol hydrochloride] | 48.6 |
| CCOc1ccc2c(Cc3cc(OC)c(OC)c(OC)c3Cl)cncc2c1O [Compound 110, 4-(2-Chloro-3,4,5-trimethoxybenzyl)-7-ethoxyisoquinolin-8-ol hydrochloride] | 68 |
| CCOc1ccc2c(Cc3cc(OC)c(OCC(=O)OC)c(OC)c3)cncc2c1O [Compound 48, Methyl 2-(4-((7-ethoxy-8-hydroxyisoquinolin-4-yl)methyl)-2,6-dimethoxyphenoxy)acetate hydrochloride] | 812 |
| CCOc1ccc2c(Cc3cc(OC)c(OC)c(OC)c3)cncc2c1NS(=O)(=O)NC(=O)OC(C)(C)C [Compound 7, tert-butyl N-(7-ethoxy-4-(3,4,5-trimethoxybenzyl)isoquinolin-8-yl)sulfamoylcarbamate] | 147 |
| CCOc1ccc2c(Cc3cc(OC)c(OC)c(OC)c3)cncc2c1Cl [Compound 106, 8-Chloro-7-ethoxy-4-(3,4,5-trimethoxybenzyl)isoquinoline hydrochloride] | 885 |
| CCOc1ccc2c(Cc3cc(OC)c(OC)c([N+](=O)[O-])c3)cncc2c1O [Compound 103, 4-(3,4-Dimethoxy-5-nitrobenzyl)-7-ethoxyisoquinolin-8-ol hydrochloride] | 138 |
| CCOc1ccc2c(C(=O)c3cc(OC)c(OCC)c(OC)c3)cncc2c1OCc1ccccc1 [Compound 55, (8-(Benzyloxy)-7-ethoxyisoquinolin-4-yl)(4-ethoxy-3,5-dimethoxyphenyl)methanone] | 422 |
| CCOc1ccc2c(C(=O)c3cc(OC)c(OC)c(OC)c3)cncc2c1NC(C)=O [Compound 111, N-(7-Ethoxy-4-(3,4,5-trimethoxybenzoyl)isoquinolin-8-yl)acetamide hydrochloride] | 96.8 |
